In patent US20210378281A1, “INHIBITION OF SENSORY IRRITATION DURING CONSUMPTION OF NON-SMOKEABLE TOBACCO PRODUCTS” (priority 2010, published 2021):
“And” between values parts separate entries of the source, which are not always exact repeats. Identical values can stand only once. “Also recorded” adds a separate entry of the source.

Experiments:
mouth of participants = assay: threshold of irritation from camphor, oral sip and swish of camphor solution; type: in vivo, human; design: key to irritation felt at 200 ppm / irritation felt at 300 ppm / irritation felt at 400 ppm / irritation felt at 1000 ppm / irritation felt at 2000 ppm / irritation felt at 4000 ppm / irritation felt at 6000 ppm: Y: the participant felt irritation at the indicated concentration; N: no irritation was felt
Protocol: A further study was conducted to determine the threshold at which camphor itself would cause sensory irritation.
Each test used two milliliters (2 ml) of a camphor solution. The camphor was dissolved in ethanol and further diluted in water. Participants received sequentially increasing concentration of camphor. Nine participants received samples including food grade racemic camphor, with concentrations of 200, 300, 400, […] 1000, 2000, 4000, 6000 ppm (corresponding to about […] per sample, respectively).
Participants wore nose clips during evaluation. Each participant sipped the sample, swished it in the mouth for 10 seconds, then spat it out. Each participant then indicated whether irritation was perceived. Between evaluations of each sample, participants rinsed with water and waited for one minute.
The left-most column indicates the participant number of each individual participant.

nerve fibers = settings: isolated mouse trachea model; cited from earlier work
[1] = tested on: mouth of subjects using oral tobacco; assay: snus pouches with camphor, perceived burning in the mouth, 2AFC design; type: in vivo, human
Protocol: A further study was conducted to determine if camphor affected perceived burning in the mouth of subjects using oral tobacco. Participants were given two snus pouch samples to use simultaneously, one in each side of the mouth. One sample was a control pouch with no camphor added and the other contained various concentrations of camphor ([…], based on tobacco weight, respectively). The hand-made test samples were constructed using unflavored tobacco (12% oven volatiles) to prevent any possible interference of the flavor system with the objective of the study. In preparing the pouches, the camphor was dissolved in 95% ethanol, with the control pouches receiving the ethanol only. Ten (10) microliters of one of the solutions was applied to each sample pouch (5 microliters per side). […] Responses were recorded on paper by the experimenter. […] Following each evaluation, participants were asked to give details regarding where the burning was felt and to provide any open-ended comments regarding their experience, which were recorded on paper by the experimenter. Participants repeated the sensory evaluation procedures an additional six (6) times, with a maximum of two (2) pairs being evaluated each day.

[2] = tested on: tongues of human volunteers; assay: pre-treatment with camphor on sensory irritation from nicotine, tongues of human volunteers; type: in vivo; settings: camphor 25, 50 or 100 ppm, 20 microliters on strip for 30 seconds before 0.1-0.3% nicotine
Excerpt: FIGS. 1 and 2 show the results of a study on the effect of pre-treatment with camphor on sensory irritation from nicotine. Camphor was applied to tongues of human volunteers prior to application of a nicotine solution. Randomized sides of tongues were selected for application of 20 microliters of 0 ppm, 25 ppm, 50 ppm, or 100 ppm of camphor on a strip (thus, about […], respectively) for 30 seconds. Then, the subjects sipped, rinsed, then spit 0.1%, 0.2%, or 0.3% of a nicotine solution for a 5 second application. Participants were then asked which side of the tongue has the strongest burning sensation. Responses were collected both immediately (within 5 seconds) (FIG. 1) and after 30 seconds (FIG. 2). Controls received no camphor, and a baseline was established at zero camphor.

TRPA1 receptors = TRPA1 receptors (Homo sapiens, UniProt O75762); settings: cited from earlier work
TRPV1 receptors = settings: increasing their responsiveness; J. Neurophysiol., 91: 1482-1491, 2004; cited from earlier work

Sequence of TRPA1 receptors (O75762 whole entry): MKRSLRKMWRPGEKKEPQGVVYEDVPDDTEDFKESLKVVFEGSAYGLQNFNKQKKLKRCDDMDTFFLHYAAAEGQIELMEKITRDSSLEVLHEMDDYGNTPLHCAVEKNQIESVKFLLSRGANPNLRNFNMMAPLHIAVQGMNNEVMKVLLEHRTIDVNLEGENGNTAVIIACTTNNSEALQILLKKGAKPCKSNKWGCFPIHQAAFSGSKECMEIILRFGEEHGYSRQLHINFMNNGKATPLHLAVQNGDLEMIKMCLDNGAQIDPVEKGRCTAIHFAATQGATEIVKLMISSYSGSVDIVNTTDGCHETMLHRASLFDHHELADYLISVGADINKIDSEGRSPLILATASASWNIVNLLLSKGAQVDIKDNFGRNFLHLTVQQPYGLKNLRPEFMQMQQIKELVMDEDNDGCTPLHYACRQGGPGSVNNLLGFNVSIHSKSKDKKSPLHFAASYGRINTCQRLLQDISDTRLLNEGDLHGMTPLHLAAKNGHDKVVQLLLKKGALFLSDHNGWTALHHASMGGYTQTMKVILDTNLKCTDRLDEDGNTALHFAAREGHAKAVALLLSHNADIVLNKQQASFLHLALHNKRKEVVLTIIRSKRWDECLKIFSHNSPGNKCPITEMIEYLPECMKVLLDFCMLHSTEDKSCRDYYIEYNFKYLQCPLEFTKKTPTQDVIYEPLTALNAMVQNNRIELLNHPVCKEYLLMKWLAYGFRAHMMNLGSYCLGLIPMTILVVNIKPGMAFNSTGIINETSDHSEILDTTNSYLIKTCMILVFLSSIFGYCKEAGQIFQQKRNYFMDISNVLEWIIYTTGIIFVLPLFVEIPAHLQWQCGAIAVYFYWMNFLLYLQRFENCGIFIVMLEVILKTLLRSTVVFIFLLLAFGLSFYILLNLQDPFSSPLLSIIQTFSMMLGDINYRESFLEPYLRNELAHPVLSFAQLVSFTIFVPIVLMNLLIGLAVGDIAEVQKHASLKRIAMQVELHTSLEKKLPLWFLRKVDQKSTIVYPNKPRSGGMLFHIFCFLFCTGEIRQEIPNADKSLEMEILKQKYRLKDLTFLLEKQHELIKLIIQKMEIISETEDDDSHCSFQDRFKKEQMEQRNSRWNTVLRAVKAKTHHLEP

| Compound | irritation felt at 200 ppm (mouth of participants; 200 ppm camphor, 2 ml solution, swished 10 seconds, one line per participant) | irritation felt at 300 ppm (mouth of participants; 300 ppm camphor, 2 ml solution, swished 10 seconds, one line per participant) | irritation felt at 400 ppm (mouth of participants; 400 ppm camphor, 2 ml solution, swished 10 seconds, one line per participant) | irritation felt at 1000 ppm (mouth of participants; 1000 ppm camphor, 2 ml solution, swished 10 seconds, one line per participant) | irritation felt at 2000 ppm (mouth of participants; 2000 ppm camphor, 2 ml solution, swished 10 seconds, one line per participant) | irritation felt at 4000 ppm (mouth of participants; 4000 ppm camphor, 2 ml solution, swished 10 seconds, one line per participant) | irritation felt at 6000 ppm (mouth of participants; 6000 ppm camphor, 2 ml solution, swished 10 seconds, one line per participant) | concentration at which a few participants were sensitive (mouth of participants; a few participants, sensitive only at higher concentrations) | concentration at which most participants perceived tingling (mouth of participants; most participants) | mean threshold for producing irritation (mouth of participants; n=9) | Notes (sensation described by participant) (mouth of participants; one line per participant, concentrations in ppm) | inhibition of activation of nerve fibers induced by the nicotinic agonist nicotine (nerve fibers) | time at which the effect was strongest ([1]; 12 nanogram (50 ppm) camphor pouch, asked at 2, 5 and 10 minutes) | reduction of oral burning from snus pouch ([1]; 12 nanogram (corresponding to 50 ppm) camphor per pouch versus control pouch) | perceived burning from nicotine, 30 seconds after initial exposure ([2]; response after 30 seconds) | perceived burning from nicotine, immediately ([2]; response immediately (within 5 seconds)) | sensitization of TRPA1 receptors (TRPA1 receptors) | sensitization of TRPV1 receptors (TRPV1 receptors) |
| --- | --- | --- | --- | --- | --- | --- | --- | --- | --- | --- | --- | --- | --- | --- | --- | --- | --- | --- |
| CC12CCC(CC1=O)C2(C)C (racemic) [camphor] | Y (3×) and N (6×) | Y (3×) and N (6×) | Y (4×) and N (4×) | N and Y (2×) | Y | Y | Y | 1000-2000 ppm | 200-300 ppm | 655 ppm | Tingling at 300, tingling no burning; also recorded: No Burning, slight tingling on edges; also recorded: Some burning and stinging at 200, | effectively inhibit activation of nerve fibers | 10 min | most effective in reducing oral burning | significantly reduced perceived burning from nicotine | significantly reduced perceived burning from nicotine | – | – |
| CN1CCCC1c1cccnc1 (stereo not drawn) [nicotine] | – | – | – | – | – | – | – | – | – | – | – | – | – | – | – | – | as well as TRPA1 receptors | sensitize TRPV1 receptors |
